The values below come from patent publication US8436151B2, “Indoleamine 2,3-dioxygenase-2 antibodies” (Lankenau Institute for Medical Research, priority 2006, dated 2013).

Entries after “also recorded” stand apart in the source; their conditions may differ.

One data set concerns the target T1, IDO1 (Mus musculus, UniProt P28776).
T1 construct: The complete coding regions of murine IDO1 and IDO2 were cloned in-frame with the V5/His TAG coding region in pcDNA4/TO; expressed in transfected cells; host or cells: T-REx-293 cells (Invitrogen), pcDNA4/TO-muIDO1, doxycycline-induced
Type of data set: cell-based, murine. The procedure:
This assay measures the product of the indoleamine 2,3-dioxygenase conversion of L-tryptophan to N-formyl-kynurenine by acid hydrolysis to kynurenine, which is measured indirectly though the absorbance (480 nm) of imine produced by the reaction of the aromatic amino group of klynurenine with p-dimethylaminobenzaldehyde (Ehrlich's reagent) as described by Takikawa et al. (J. Biol. Chem. (1988) 263:2041-2048). Typically, 200 μL of media from the test sample is combined with 12.5 μL of 30% TCA and incubated at 50° C. for 30 minutes. Evaporation was avoided by sealing the rim of the plate or tubes with parafilm. Samples are clarified by centrifugation for 10 minutes at 3-10K rpm. 100 μL of the supernatant was removed to a fresh well in an assay plate and mixed with 100 μL of fresh Ehrlich's reagent (2% p-dimethylaminobenzaldehyde w/v with glacial acetic acid). The plates were incubated for 10-30 minutes at room temperature and the absorbance was read at 490 nm. Typically, assays were performed in triplicate and the data analyzed using Excel software program (Microsoft). Background/control samples were typically derived from media from uninduced cells or cells that lack IDO1/2 expression vectors. Typically, control values were averaged and subtracted from the sample values. […]

A further data set has as its system IDO2 activation of LIP. Kind of data set: Western blot of LIP (NFIL-6) expression in IDO2 expressing T-REx cells. It counts as cell-based. The following applies: for inhibition of IDO2 activation of LIP: Western blot (FIG. 9B). The procedure: T-REx™ cells (control) and T-REx™ cells expressing IDO1 were either uninduced or induced with doxycycline in the presence or absence of added tryptophan (100 μM). […] T-REx™ cells (control) and T-REx™ cells expressing IDO2 were either uninduced or induced with doxycycline in the presence or absence of added tryptophan. Cells were also optionally treated with the D, L and mixed DL racemic isomers of 1-methyl-tryptophan, (1M-D-T, 1M-L-T and 1M-LD-T, respectively). […] T-REx™ cells expressing IDO2 were either uninduced or induced with doxycycline in the presence or absence of added tryptophan.
Cell lysates were prepared as follows: Cells were removed from the dish by scrapping or pipetting in PBS and collected by centrifugation (2000 rpm/5 minutes). The supernatant was discarded and the cell pellet was lysed in RIPA buffer [50 mM Tris-HCl pH 7.4/150 mM NaCl/1% Triton x-100/1% Sodium deoxycholate/0.1% SDS] plus a protease inhibitor cocktail (Calbiochem Cat #539134). Typically 5×10^5 cells were resuspended in 200 μL of RIPA buffer. Cells lysates were vortexed and incubated on ice or frozen at −20° C. until use. Prior to use lysates were clarified by centrifugation (10,000 rpm/15 minutes) and heat denatured at 95° C. in SDS/sample buffer (100 mM Tris/25% glycerol/2% SDS/0.01% bromophenol blue/25 mM DTT). Proteins were separated by PAGE using NuPAGE® Gels (Invitrogen) and transferred at 100 Volts on to Immobilon-NC Nitrocellulose membranes (Millipore, Billerica, Mass., Cat #HAHY00010) in transfer buffer (25 mM Tris pH 8.3/192 mM glycine/20% methanol). […] For secondary antibody applications, the secondary antibody containing HRP was added in blocking buffer at the appropriate dilution, incubated by shaking at room temperature for 1 hour, and washed 5-6 times in PBS/0.1% Tween. The western membranes were developed by Chemiluminescence using SuperSignal® West Pico substrate (Pierce, Rockford, Ill., Cat #34078), exposed to autography film for an appropriate period of time (3 seconds to 18 hours), and developed.

The test system of another data set is tumor. Conditions: background statement; listed as L-1MT; cited from earlier work.
In the next data set the target is T2, IDO2 (Mus musculus, UniProt Q8R0V5).
T2 construct: The complete coding regions of murine IDO1 and IDO2 were cloned in-frame with the V5/His TAG coding region in pcDNA4/TO; expressed in transfected cells; host or cells: T-REx-293 cells (Invitrogen), pcDNA4/TO-muIDO2, doxycycline-induced
T2 sequence (Q8R0V5 1-405): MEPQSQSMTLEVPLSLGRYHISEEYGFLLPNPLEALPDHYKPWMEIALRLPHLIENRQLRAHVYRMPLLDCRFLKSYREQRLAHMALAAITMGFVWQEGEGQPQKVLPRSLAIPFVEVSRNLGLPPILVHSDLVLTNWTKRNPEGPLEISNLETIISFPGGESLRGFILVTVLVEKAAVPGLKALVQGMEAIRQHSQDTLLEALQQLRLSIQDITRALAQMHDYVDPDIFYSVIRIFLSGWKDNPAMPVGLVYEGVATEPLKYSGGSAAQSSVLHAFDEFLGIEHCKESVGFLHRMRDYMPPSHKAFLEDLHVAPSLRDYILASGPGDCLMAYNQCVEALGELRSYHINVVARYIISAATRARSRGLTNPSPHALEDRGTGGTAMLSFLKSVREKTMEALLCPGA
Kind of data set: Cell-based kynurenine detection assay in IDO2 expressing T-REx cells. Details: species or system murine. Conditions: doxycycline-induced T-REx cells, increasing concentrations, 5 days (FIG. 8B). The procedure: This assay measures the product of the indoleamine 2,3-dioxygenase conversion of L-tryptophan to N-formyl-kynurenine by acid hydrolysis to kynurenine, which is measured indirectly though the absorbance (480 nm) of imine produced by the reaction of the aromatic amino group of klynurenine with p-dimethylaminobenzaldehyde (Ehrlich's reagent) as described by Takikawa et al. (J. Biol. Chem. (1988) 263:2041-2048). Typically, 200 μL of media from the test sample is combined with 12.5 μL of 30% TCA and incubated at 50° C. for 30 minutes. Evaporation was avoided by sealing the rim of the plate or tubes with parafilm. Samples are clarified by centrifugation for 10 minutes at 3-10K rpm. 100 μL of the supernatant was removed to a fresh well in an assay plate and mixed with 100 μL of fresh Ehrlich's reagent (2% p-dimethylaminobenzaldehyde w/v with glacial acetic acid). The plates were incubated for 10-30 minutes at room temperature and the absorbance was read at 490 nm. Typically, assays were performed in triplicate and the data analyzed using Excel software program (Microsoft). […] Typically, control values were averaged and subtracted from the sample values. The complete coding regions of murine IDO1 and IDO2 were cloned in-frame with the […] TAG coding region in pcDNA4/TO (Invitrogen) which contains a regulatory region that is repressed by the tetracyclin regulated repressor (TetR). The complete coding regions of IDO1 and IDO2 were generated using gene specific primers [IDO2 5'[…] ID NO: 16) and IDO1 5'[…] ID NO: 17)] and 3' primers that were gene specific and removed the termination codon [IDO[…] ID NO: 18) and IDO1 minus stop [NT] ID NO: 19)]. The IDO1 and 2 coding regions where then cloned in-frame with the […] carboxyl terminal Tag in the pcDNA4 TO vector (Invitrogen). IDO2 expressing 293 cells metabolize tryptophan and can be inhibited by 1-methyl-[…]). […] The cells were maintained in growth media plus supplements for 5 days, after which the media was harvested and subjected to analysis for the presence of kynurenine.

Data set [1] concerns purified recIDO2 proteins (rmuIDO2 or rhuIDO2). Kind of data set: Enzyme assay of purified recombinant IDO2 (kynurenine formed from L-tryptophan). It counts as biochemical, murine and human. The following applies: varying amounts 0-100 μM (FIG. 25). As for the experimental part: IDO2 activity was measured as the amount of kynurenine formed from L-tryptophan. The standard assay conditions consisted of a mixture containing 50 mM Pipes pH 6.5, between 50 and 600 nM of rmuIDO2 or rhuIDO2 (where 100 nM of rIDO2 is approximately 5.5 μg protein per mL reaction), 200 U catalase (0.2 mg/mL, sp act. ˜1000 U/mg), 200 μM L-tryptophan, 10 μM methylene blue and 20 mM ascorbic acid. The mixture was incubated at various times ranging from 15 minutes to 4 hours at 37° C. before the reaction was stopped by adding trichloroacetic acid (TCA) to 3% final. The samples were then heated to 50-60° C. for 30 minutes to convert N-formyl-kynureneine to kynurenine, clarified by centrifugation, and supernatants (100 μL) were removed to a new dish, mixed with 100 μL Ehrlich's reagent (2% p-dimethylaminobenzaldehyde w/v in glacial acetic acid), and incubated 10-30 minutes at room temperature. Absorbance at 490 nm was determined on a plate reader and the data collected and analyzed using Excel software (Microsoft). Typically, samples were analyzed in triplicate and control values were typically averaged and subtracted from sample values. Enzyme activity was estimated based on the conversion of tryptophan to kynurenine using linear regression analysis based on an absorbance standard curve derived from assay measurements on known amounts of kynurenine.

The test system of data set [2] is allogeneic mouse concepti. The following applies: Mellor et al. 2001; Munn et al. 1998; cited from earlier work.

T1 sequence (P28776 whole entry): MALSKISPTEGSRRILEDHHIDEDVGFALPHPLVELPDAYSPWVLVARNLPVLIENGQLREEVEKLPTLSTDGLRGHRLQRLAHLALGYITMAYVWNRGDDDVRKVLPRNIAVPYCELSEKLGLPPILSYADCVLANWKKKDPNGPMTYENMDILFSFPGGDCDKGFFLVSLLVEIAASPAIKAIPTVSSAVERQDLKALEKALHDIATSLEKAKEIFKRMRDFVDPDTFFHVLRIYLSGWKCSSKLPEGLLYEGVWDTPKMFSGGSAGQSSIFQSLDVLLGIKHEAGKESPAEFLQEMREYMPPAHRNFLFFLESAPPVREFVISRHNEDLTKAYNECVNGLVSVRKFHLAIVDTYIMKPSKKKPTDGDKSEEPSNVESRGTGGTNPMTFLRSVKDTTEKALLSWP

As to `CN1C(=O)C(Cc2c[nH]c3ccccc23)NC1=S` (centres unmarked) [MTH, 5-(indol-3-methyl)-3-methyl-2-thio-Hydantoin], the “toxicity of inhibitor to the cells” value at IDO1 was “not toxic to the cells”. For the same molecule, the “kynurenine production in IDO1 expressing cells” value at IDO1 (doxycycline-induced T-REx cells, increasing concentrations, 5 days (FIG. 8A)) is reported as “decrease in kynurenine production in the IDO1 expressing cells was observed in a dose dependent manner”.
For the molecule `Cn1cc(C[C@H](N)C(=O)O)c2ccccc21` [1M-L-T, 1-Methyl-L-Tryptophan], in the data set with IDO2 activation of LIP, the “inhibition of IDO2 activation of LIP” value is recorded as “to a lesser extent”. Besides, the antitumor activity entry with tumor is “exhibits a characteristic pattern of antitumor activities; also recorded: effective at inhibiting IDO1 activity and tumor progression”. Moreover, on IDO2, the “kynurenine production in IDO2 expressing cells” value is given as “no changes in kynurenine levels”.
With `Cn1cc(C[C@@H](N)C(=O)O)c2ccccc21` [1M-D-T, 1-Methyl-D-Tryptophan], the “inhibition of IDO2 activation of LIP” value with IDO2 activation of LIP is given as “inhibited”. Also, the “activation of GCN2 kinase and subsequent altered LIP expression” value with IDO2 activation of LIP (summary statement) was “blocks the activation of GCN2 kinase and subsequent altered LIP expression”. Moreover, the “inhibition of purified recIDO2 proteins” value in data set [1] is given as “inhibited”. The “kynurenine production in IDO2 expressing cells” value at IDO2 was “decrease in kynurenine production in the IDO2 expressing cells was observed only with 1M-D-T in a dose dependent manner”.
For the molecule `Cn1cc(CC(N)C(=O)O)c2ccccc21` (racemic) [1M-LD-T, 1-Methyl-DL-Tryptophan], the “rejection of allogeneic mouse concepti” value in data set [2] was “elicit MHC-restricted and T cell-mediated rejection of allogeneic mouse concepti”. The “kynurenine production in IDO2 expressing cells” value on IDO2 is reported as “no changes in kynurenine levels”.
